# PMC7438500 (Nature Communications, 2020)
# Entries after “also recorded” stand apart in the source; their conditions may differ.
# B1: Fab 7881: Fab fragment antibody specific for the ghrelin receptor, binds ICL3 (antibody, V domains shown)
# VH: EVQLQQSGAELVRPGASVKLSCKASGYTFTDYEMHWVKQTPVHGLEWIGAIDPETGGTVYNQKFKGKATLTADISSTTAYMELRSLTSEDSAVYFCISEDIDESKDYWGQGTTLTVSS
# VL: DIVMTQSPSSLAVSAGEKVTLSCKSSQSLFNSRTRKNYLAWYQQKPGLSPTLLIYWASTRKSGVPDRFTGSGSGTDFTLTITSVQAEDLAVYYCKQSYYLRTFGGGTKLEIK
# Key:
# ghrelin receptor [1] = details: cited from earlier work
# Excerpt: No other peptide hormone is known to require such an acyl-modification for its activity.
# ghrelin receptor WT = molecular target: T1, ghrelin receptor WT (Homo sapiens, UniProt Q92847, N188Q); assay: [3H]-Compound 21 saturation binding, WT; details: HEK293 membranes, on ice 1 h, pH7.5; mean ± s.d., three independent experiments
# T1 construct: Full-length human ghrelin receptor was used for the mutagenesis; expressed in transfected cells
# Description: (§1) The homogenate was ultracentrifuged at 100,000×g for 30 min at 4 °C, and the pellet was washed twice with cold homogenization buffer. The protein concentration was determined using BCA Protein Assay (Thermo Fisher). […] Bound [^3H]-Compound 21 was quantified with an AccuFLEX LCS-8000 liquid scintillation counter (Hitachi) after addition of 2.5 ml of Clear-Sol liquid scintillation cocktail (Nacalai Tesque). Data were analyzed by nonlinear curve-fitting using the program GraphPad Prism 5. Binding data are reported as means ± s.d.
# [2] = molecular target: ghrelin receptor crystallization construct (hGHSR29-346 (T130K/N188Q)); assay: [3H]-Compound 21 saturation binding, crystallization construct; parameters: species or system human; details: Sf9 membranes, 3.125–50 nM radioligand, on ice 1 h, pH7.5; mean ± s.d.
# Description: as §1
# [3] = tested on: ghrelin receptor WT (hGHSR WT); assay: Luciferase assay, basal (constitutive) activity in presence of Compound 21; format: cell-based, human; details: CHO cells, 10^-10 to 10^-6 M Compound 21, 1 h; n=5–6
# Description: Transfections were performed using the FuGENE HD transfection reagent (Promega). The next day, the transfected cells were collected and plated into 96-well white microplates (Corning) at a density of 2.5 × 10^4 cells/well. After a 1-day incubation, the luciferase activities were determined using Dual-Luciferase Reporter Assay System (Promega). […] All firefly luciferase activities were normalized against Renilla luciferase activity. All experiments were performed in sextuplicate.
# ghrelin receptor [4] = molecular target: T2, ghrelin receptor (Homo sapiens, UniProt Q92847); assay: Crystal structure of bRIL-hGHSR-Fab 7881-Compound 21 complex; details: 3.3 Å resolution, PDB 6KO5
# T2 construct: expressed in transfected cells; host or cells: HEK293 cells (membrane preparations, transient expression)
# Description: The complex was purified by gel filtration using Superdex 200 Increase 10/300 GL. […] In the mixture, the protein solution:lipid mass ratio was fixed at 2:3 using the twin-syringe mixing method. Crystallization experiments were carried out in 96-well glass sandwich plates (Molecular Dimensions) on an NT8-LCP crystallization robot (Formulatrix) using a 30 nl protein solution cubic phase overlaid with 600 nl precipitant solution, and incubated at 20 °C. The best crystals were obtained from precipitant solution containing 100 mM MES (pH 6.6–7.0), 400 mM potassium acetate, and 36–40% polyethylene glycol (PEG) 300. The crystals were collected within 2 weeks using mesh grid loops (WAKENBTECH) and flash-cooled in liquid nitrogen. Initial crystals were obtained in hanging drops by vapor diffusion at 20 °C from the precipitant solution containing 100 mM bicine (pH 9.0), 100 mM sodium chloride, and 30% PEG550MME.
# All diffraction datasets were collected at SPring-8 BL32XU[42] using a micro-focused X-ray beam. Loop-harvested microcrystals were identified using raster scan and analysis by SHIKA[43]. […] The structure was determined by molecular replacement with the program PHASER[47], using the receptor portions of the antagonist-bound orexin receptor (PDB ID: 4S0V), bRIL (PDB ID: 1M6T), and the Fab 7881 antibody (this study, ID: 6KS2) as the search models. […]
# ghrelin receptor D99A = assay: Intracellular Ca2+ concentration assay, D99A; format: cell-based, human; details: Fig. 4a
# Description: (§2) The positions of mutated amino acids and primers are listed in Supplementary Table 2.
# (§3) Transfections were performed using the FuGENE HD transfection reagent (Promega). The next day, the transfected cells were collected and plated into 96-well black-wall assay microplates (Corning) at a density of 3 × 10^4 cells/well. After a 1-day incubation, the cells were incubated for 1 h with 100 μl of calcium indicator Fluo-4 from the FLIPR Calcium 5 Assay Kit (Molecular Devices) in Hank’s BSS containing 20 mM HEPES-NaOH (pH7.5) and 2.5 mM probenecid. Fifty-microliter aliquots of samples were tested to induce changes in fluorescence due to increased calcium concentration on a FlexStation3 (Molecular Devices). Maximum [Ca^2+]i changes were determined in quadruplicate (n = 4).
# ghrelin receptor R102A = assay: Intracellular Ca2+ concentration assay, R102A; format: cell-based, human; details: Fig. 4b
# Description: as §2, §3
# ghrelin receptor E124A = assay: Intracellular Ca2+ concentration assay, E124A; format: cell-based, human; details: Fig. 4c
# Description: as §2, §3
# ghrelin receptor R283A = assay: Intracellular Ca2+ concentration assay, R283A; format: cell-based, human; details: Fig. 4d
# Description: as §2, §3
# ghrelin receptor F286A = tested on: T3, ghrelin receptor F286A; assay: Intracellular Ca2+ concentration assay, F286A; format: cell-based, human; details: Fig. 4f
# T3 construct: Full-length human ghrelin receptor was used for the mutagenesis; expressed in transfected cells; host or cells: CHO cells
# Description: as §2, §3
# [5] = peripheral injection; ref [3]; cited from earlier work
# bRIL-hGHSR = assay: Protein thermostability assay (CPM); format: biochemical, human; details: Compound 21 present in both samples
# Description: The thermal stability analysis was performed with the thiol-specific fluorochrome N-[4-(7-diethylamino-4-methyl-3-coumarinyl)phenyl]maleimide (CPM)[40]. CPM at 4 mg ml^−1 in DMSO was diluted 40-fold into buffer containing 20 mM HEPES-NaOH (pH 7.5), 100 mM NaCl, 0.01% LMNG, and 0.001% CHS. Purified protein (20 µg) was mixed with diluted CPM and incubated on ice for 15 min in darkness. The reaction mixture (20 µl) was heated in a controlled manner with a ramp rate of 3 °C min^−1 in a MyiQ2 thermal cycler (Bio-Rad). […] Assays were performed over a temperature range starting from 4 °C and ending at 80 °C. The peak in the derivative of the fluorescence signal was used to determine the melting temperature.
# T2 sequence (Q92847 whole entry): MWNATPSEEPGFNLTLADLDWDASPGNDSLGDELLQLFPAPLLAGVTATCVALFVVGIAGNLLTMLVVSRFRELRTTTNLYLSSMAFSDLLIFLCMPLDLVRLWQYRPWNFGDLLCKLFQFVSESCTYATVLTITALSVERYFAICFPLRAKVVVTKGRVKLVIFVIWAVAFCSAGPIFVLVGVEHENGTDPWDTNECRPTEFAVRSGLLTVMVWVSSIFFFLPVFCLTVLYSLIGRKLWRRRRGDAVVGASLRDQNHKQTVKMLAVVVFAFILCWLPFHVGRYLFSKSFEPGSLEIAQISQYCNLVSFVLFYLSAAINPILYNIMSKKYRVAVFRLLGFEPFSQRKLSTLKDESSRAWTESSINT
# T1 sequence (Q92847 whole entry N188Q): as the sequence (Q92847 whole entry) above, with N188Q counted along it
molecule,measurement,setting,value
n-octanoyl ghrelin,potency of ghrelin forms,ghrelin receptor [1]; reference not given,most potent active form
des-acyl ghrelin,activity of ghrelin forms,"ghrelin receptor [1]; ref [2],[5]",inactive
Cc1nc2ccc(Oc3ccc(Br)cc3F)nc2c(=O)n1CC1CCCN(C(C)C)C1 (centres unmarked) [Compound 21],Kd,ghrelin receptor WT,4.42 ± 0.76 nM
same,Kd,[2],17.2 ± 7.1 nM
same,effect on constitutive activity,[3],no effect on the constitutive activity; also recorded: neutral antagonist
same,interaction seen in crystal structure,ghrelin receptor [4],"forms a hydrogen bond with R283^6.55; also recorded: π–cation interaction with R102^2.63; also recorded: forms hydrophobic interactions with the F279^6.51, F309^7.39, and F312^7.42; also recorded: three hydrophobic contacts with residues I178^4.60, L181^4.63, and M213^5.39"
CCCCCCCC(=O)OC[C@H](NC(=O)[C@H](CO)NC(=O)CN)C(=O)N[C@@H](Cc1ccccc1)C(=O)N[C@@H](CC(C)C)C(=O)N[C@@H](CO)C(=O)N1CCC[C@H]1C(=O)N[C@@H](CCC(=O)O)C(=O)N[C@@H](Cc1c[nH]cn1)C(=O)N[C@@H](CCC(N)=O)C(=O)N[C@@H](CCCNC(=N)N)C(=O)N[C@H](C(=O)N[C@@H](CCC(N)=O)C(=O)N[C@@H](CCC(N)=O)C(=O)N[C@@H](CCCNC(=N)N)C(=O)N[C@@H](CCCCN)C(=O)N[C@@H](CCC(=O)O)C(=O)N[C@@H](CO)C(=O)N[C@@H](CCCCN)C(=O)N[C@@H](CCCCN)C(=O)N1CCC[C@H]1C(=O)N1CCC[C@H]1C(=O)N[C@@H](C)C(=O)N[C@@H](CCCCN)C(=O)N[C@@H](CC(C)C)C(=O)N[C@@H](CCC(N)=O)C(=O)N1CCC[C@H]1C(=O)N[C@@H](CCCNC(=N)N)C(=O)O)C(C)C [Ghrelin],receptor activity,ghrelin receptor D99A,abolishes the receptor activity
same,receptor activity,ghrelin receptor R102A,abolishes the receptor activity
same,ghrelin-induced receptor function,ghrelin receptor E124A,completely abolished ghrelin-induced receptor function
same,ghrelin-induced receptor function,ghrelin receptor R283A,completely abolished ghrelin-induced receptor function
same,ghrelin-induced receptor activity,ghrelin receptor F286A,only slightly lower than that of the WT ghrelin receptor
same,appetite,[5],induces appetite stimulation following peripheral injection
B1,increase of Tm,bRIL-hGHSR,about 5 °C
same,interaction seen in crystal structure,ghrelin receptor [4],binds to intracellular loop 3 (ICL3)
